Measured values as given in PubChem BioAssay (NCI).
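Interpolation was linear, between the two tested concentrations surrounding the appropriate level; five concentrations were tested over 48 hours in 96-well plates. At the TGI there is no net growth.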 *1 amine or outer side, *2 acyl side, *3 side chain or, on linkers, in order; H or OH if unused. Where a SMILES comes first, the peptide text is derived from it. [ ]: non-standard residue; d: D form. The star is where a group is joined. X31 = CC(=O)N(C)SCC(N[*:1])C(=O)[*:2]; X47 = CC(=O)N(C)SCC(N*)/C(O)=N\O; Cbz = O=C(OCc1ccccc1)*; Boc = CC(C)(C)OC(=O)*; Bz = O=C(c1ccccc1)*; Bn = c1ccc(C*)cc1; For = O=C*

Tests used:
Test in all cases: NCI-60 cell line screen, 48 h
HL-60(TB) leukemia = tested on: HL-60(TB) leukemia
SN12C renal = tested on: SN12C renal
SF-268 CNS = tested on: SF-268 CNS
SK-MEL-2 melanoma = tested on: SK-MEL-2 melanoma
SNB-19 CNS = tested on: SNB-19 CNS
T-47D breast = tested on: T-47D breast
RPMI-8226 leukemia = tested on: RPMI-8226 leukemia
786-0 renal = tested on: 786-0 renal
SF-295 CNS = tested on: SF-295 CNS
SK-MEL-5 melanoma = tested on: SK-MEL-5 melanoma

Structure (SMILES) | TGI (HL-60(TB) leukemia) [µM] | TGI (SN12C renal) [µM] | TGI (SF-268 CNS) [µM] | TGI (SK-MEL-2 melanoma) [µM] | TGI (SNB-19 CNS) [µM] | TGI (T-47D breast) [µM] | TGI (RPMI-8226 leukemia) [µM] | TGI (786-0 renal) [µM] | TGI (SF-295 CNS) [µM] | TGI (SK-MEL-5 melanoma) [µM]
C=CCOC(=O)N1[C@H]2C#C/C=C\C#C[C@]3(O)C(=O)C[C@H](C)[C@]24O[C@]43C2=CC(=O)C=CC21OC (stereo partly specified) | 92.8 | 67.4 | > 100 | 66.5 | > 100 | > 100 | 81.5 | 38.7 | > 100 | –
CC1=NCCN=C(C)C1N=Nc1ccc2nc(C)[nH]c2c1 | 9.33 | 30.9 | 46.4 | 46.3 | 28.7 | 47.5 | 17.4 | 33.5 | 31.5 | –
Cc1cccc(C(C)C)c1NC(=O)C(=O)CC(=O)c1sc(Nc2ccccc2Cl)nc1C | 41 | > 100 | > 100 | > 100 | > 100 | > 100 | > 100 | > 100 | > 100 | 87.9
O=c1cc(NCCCCCO)[nH]c(=O)[nH]1 | > 100 | > 100 | > 100 | > 100 | > 100 | > 100 | > 100 | > 100 | > 100 | > 100
CCOC(=O)C1(C(N)=O)C(=O)c2ccncc2C1=O (stereo unspecified) | > 100 | > 100 | > 100 | > 100 | > 100 | > 100 | > 100 | > 100 | > 100 | > 100
C/C(CC/C(C)=N/O)=N\O | > 100 | > 100 | > 100 | > 100 | > 100 | > 100 | > 100 | > 100 | > 100 | > 100
COc1ccc(/C=C2\CCC(C)C3=C(c4ccc(OC)c(OC)c4)C(C#N)=C(N)OC32)cc1OC (stereo unspecified) | 7.75 | 28.2 | > 100 | 5.63 | > 100 | 7.97 | 5.76 | 25.1 | 75.9 | 4.66
CN(C)c1ccc(/C=c2/c3ccccc3n3c2c2ccccc2[n+]3C)cc1 | 0.428 | 2.55 | 1.98 | 0.782 | 4.76 | 1.51 | 0.581 | 1.69 | 13.1 | 0.659
COc1ccccc1/C=C/C1=NN(c2cccc(S(=O)(=O)O)c2)C2(C1)SCC(=O)N2c1nc2ccccc2s1 (stereo unspecified) | > 100 | > 100 | > 100 | > 100 | > 100 | 71.8 | 65.4 | > 100 | – | > 100
C=CCn1c(=O)c2ccccc2[n+]2c(C)c(C(=O)OCC)sc12 | > 100 | > 100 | > 100 | > 100 | > 100 | > 100 | > 100 | > 100 | > 100 | > 100
COc1ccc(/C=C2\CCCC(CN(C)C)C2=O)cc1 (stereo unspecified) | 4.62 | 7.12 | 11 | 11 | 18 | 7.72 | 0.433 | 3.47 | 36.8 | 28.8
COc1ccc(C2=CC(c3ccccc3)n3nnnc3N2)cc1 (stereo unspecified) | > 100 | > 100 | > 100 | > 100 | > 100 | > 100 | > 100 | > 100 | > 100 | > 100
Cc1c(NC(=S)NN)c(=O)n(-c2ccccc2)n1C | > 100 | > 100 | > 100 | > 100 | > 100 | > 100 | > 100 | > 100 | > 100 | > 100
ClCCCN(CCCCl)c1ccc(C=Nc2cccc(Cl)c2)cc1 | 58.4 | > 79.7 | > 71.1 | > 100 | > 100 | 44.8 | 55 | > 67.2 | > 82.4 | 36.7
CCCCCCCC1C(C)c2c([nH]c3ccccc23)C2C(=O)N(c3ccc(OC)cc3)C(=O)C21 (stereo unspecified) | 3.73 | > 5.95 | > 10 | > 10 | 9.92 | > 10 | > 10 | 3.28 | > 6.64 | > 10
CCC1=NC(N/N=C/c2ccco2)=N/C1=C\c1ccccc1O | 60.6 | > 100 | > 100 | 89.4 | > 100 | > 100 | > 100 | > 100 | > 100 | > 100
Cc1c2c(c(C)n1-c1ccccc1)C(=O)N(CCCCN1CCN(c3ccccc3)CC1)C2=O | 17.2 | 43.9 | > 100 | 62.6 | > 100 | 28.8 | 47.3 | 19 | 53.7 | 13.6
CC(=O)OC1=c2ccccc2=C(O)C2C1C=NN2C(C)=O (stereo unspecified) | > 100 | > 100 | > 100 | > 100 | > 100 | > 100 | > 100 | > 100 | > 100 | > 100

Structure (SMILES) | TGI (HL-60(TB) leukemia) [µM] | TGI (SN12C renal) [µM] | TGI (SF-268 CNS) [µM] | TGI (SK-MEL-2 melanoma) [µM] | TGI (SNB-19 CNS) [µM] | TGI (T-47D breast) [µM] | TGI (RPMI-8226 leukemia) [µM] | TGI (786-0 renal) [µM] | TGI (SF-295 CNS) [µM] | TGI (SK-MEL-5 melanoma) [µM]
CC(=O)N(C)SCC(NC(=O)C(Cc1ccccc1)NC(=O)OCc1ccccc1)C(=O)NC(Cc1ccccc1)C(=O)NC(Cc1cn(C=O)c2ccccc12)C(=O)NC(CCCCNC(=O)OCc1ccccc1)C(=O)NC(C(=O)NC(CSN(C)C(C)=O)/C(O)=N\O)C(C)OCc1ccccc1 (stereo unspecified) (Cbz-F[X31]FW(For)K(Cbz)T(Bn)-X47; configuration not given here) | > 100 | > 100 | > 100 | > 100 | > 100 | > 100 | > 100 | > 100 | > 100 | > 100
CCC(C#N)(c1ccccc1)N(CCc1ccccc1)C(=O)c1ccccc1 (stereo unspecified) | > 100 | > 100 | > 100 | > 100 | > 100 | > 100 | > 100 | 37.5 | > 100 | > 100
CC(NC(=O)C(Cc1ccc(OC(=O)c2ccccc2)cc1)NC(=O)OC(C)(C)C)C(=O)NC(Cc1ccccc1)C(=O)NCC(N)=O (stereo unspecified) (Boc-Y(Bz)AFG-NH2; configuration not given here) | 82 | 42 | 43 | 35.6 | 36.5 | 50.7 | 59.7 | 43.5 | 40.1 | 81.7
Cc1c(C#N)c2nnn(-c3ccc(Cl)cc3)c(=O)n2c1-c1ccccc1 | > 57.3 | 3.85 | 14.8 | 2.99 | > 40.5 | 45.2 | > 30.6 | 7.59 | 1.03 | 1.3
NNC(=O)CSc1nc2ccc(I)cc2c(=O)n1Cc1ccccc1 | 61 | 48.6 | 41.3 | 46 | 54.8 | > 100 | 54.7 | 30.7 | 53.7 | 38.5
Nc1sc2c(c1C(=O)c1ccc(Cl)c(Cl)c1)CCCC2 | 65.3 | > 100 | > 100 | 44.1 | > 100 | > 100 | 78.1 | > 100 | > 100 | –
Brc1ccc2[nH]cc(-c3csc(-c4ccccn4)n3)c2c1 | > 100 | 30.7 | > 59.7 | > 100 | > 100 | > 100 | 63.7 | 20.3 | > 26.4 | 55.9
CC(=N\N)/C(C)=N/N=C(C)/C(C)=N/N=C(C)/C(C)=N/N=C(C)/C(C)=N/N | > 100 | > 100 | > 100 | > 100 | > 100 | > 100 | > 100 | > 100 | > 100 | > 100
O=C(CN1CCN(Cc2ccccc2)CC1)c1ccc2[nH]c(=O)oc2c1 | > 100 | > 100 | > 100 | > 100 | > 100 | > 100 | > 100 | > 100 | > 100 | > 100
Nc1cc2c3c(c1)Oc1cc(N)cc4c1C3c1c(cc(N)cc1O4)O2 | 52.6 | 49.2 | 25 | > 81.9 | > 100 | > 93.2 | 52.2 | > 86.5 | > 96.6 | 27.3
CCCCCC(C)(C)CCC(=O)OC1OC(COC2OC(COC3OC(CO)C(O)C(O)C3O)C(O)C(O)C2O)C(O)C(O)C1O (stereo unspecified) | > 100 | > 100 | > 100 | > 100 | > 100 | > 100 | > 100 | > 100 | > 100 | > 100
COc1cc2c(/C=C3/C(=O)N(C)c4ccccc43)c(Cl)[nH]c2cc1C | 0.666 | 7.99 | 3.09 | 5.31 | 14.2 | > 100 | 7.79 | 16.5 | 3.44 | 7.41
CCOC(=O)CN1C(=O)c2c(c(C)n(-c3ccccc3)c2C)C1=O | > 100 | > 100 | > 100 | > 100 | > 100 | > 100 | > 100 | > 100 | > 100 | > 100
N#Cc1c(N2CCCC2)nsc1NCc1ccccc1 | > 100 | > 100 | > 100 | > 100 | > 100 | > 100 | > 100 | > 100 | > 100 | > 100
NC(=O)c1nnc2ccc(F)cc2c1N | > 100 | > 100 | > 100 | > 100 | > 100 | > 100 | > 100 | > 100 | > 100 | > 100
Cc1ccc(-c2nc(C)c(C(=O)Nc3ccc(Cl)cc3)s2)cc1 | > 100 | > 100 | 91.8 | > 100 | 43.2 | > 100 | > 100 | 29.3 | 33.7 | 41.7
CCOC(=O)c1c2c3c(cccc3[nH]c1=O)Sc1ncccc1-2 | 86.4 | > 100 | > 100 | > 100 | > 100 | > 100 | 38.4 | > 100 | 95.3 | 24
C=CCN1CCC(OC(=O)C(O)(C#CC)C2CCCC2)CC1 (stereo unspecified) | > 100 | > 100 | > 100 | > 100 | > 100 | > 100 | > 100 | > 100 | > 100 | > 100
